Test results from patent publication US8093252B2, “Crystalline polymorphic form of glucokinase activator” (AstraZeneca AB, priority 2009, dated 2012).

Experiments:
[1] = dihydrate from slurry of the compound in water, disclosed in WO 2007/007041; cited from earlier work
[2] = relative stability of the crystalline forms of the compound; type: physicochemical; conditions: crystalline form prepared from isopropyl alcohol (IPA)

SMILES	stability of crystalline form in the presence of water [1]	stability of crystalline form relative to the other forms [2]
COC[C@H](C)Oc1cc(Oc2cnc(C(=O)N3CCC3)cn2)cc(C(=O)Nc2cnc(C)cn2)c1 [Form 3, 3-{[5-(azetidin-1-ylcarbonyl)pyrazin-2-yl]oxy}-5-{[(1S)-1-methyl-2-(methyloxy)ethyl]oxy}-N-(5-methylpyrazin-2-yl)benzamide]	most stable	
COC[C@H](C)Oc1cc(Oc2cnc(C(=O)N3CCC3)cn2)cc(C(=O)Nc2cnc(C)cn2)c1 [Form 6, 3-{[5-(azetidin-1-ylcarbonyl)pyrazin-2-yl]oxy}-5-{[(1S)-1-methyl-2-(methyloxy)ethyl]oxy}-N-(5-methylpyrazin-2-yl)benzamide]		more stable
